Test results: ChEMBL document CHEMBL1147860, “ABC synthesis and antitumor activity of a series of Annonaceous acetogenin analogs with a threo, trans, threo, trans, threo-bis-tetrahydrofuran core unit” (Bioorg Med Chem Lett, 2007)
pIC50: −log10 of the molar value.

Tested on: HCT-116
Assay: Cytotoxicity against HCT116 cells
Type: functional, cell-based
Settings: Homo sapiens

| SMILES | pIC50 |
| --- | --- |
| CCCCCCCCCCC(O)C1CCC(C2CCC(C(O)CCCCCCCC[C@H](O)CC3=C[C@@H](C)OC3=O)O2)O1 (stereo partly specified) [ASIMICIN] | 8.06 |
| C[C@H]1C=C(C[C@H](O)CCCCCCCCCC[C@@H](O)[C@H]2CC[C@H]([C@H]3CC[C@H]([C@H](O)CCCCCCCCCCCO)O3)O2)C(=O)O1 | 9.22 |
| CCCCCCCC[C@@H](O)[C@H]1CC[C@H]([C@H]2CC[C@H]([C@H](O)CCCCCCCCCC[C@@H](O)CC3=C[C@H](C)OC3=O)O2)O1 | 9.30 |
| C[C@H]1C=C(CCCCCCCCCCC[C@@H](O)[C@H]2CC[C@H]([C@H]3CC[C@H]([C@H](O)CCCCCCCCCCCO)O3)O2)C(=O)O1 | 7.46 |
| C[C@H]1C=C(C[C@H](O)CCCCCCCCCC[C@@H](O)[C@H]2CC[C@H]([C@H]3CC[C@H]([C@H](O)CCCCCCO)O3)O2)C(=O)O1 | 8.42 |
| COCOCCCCCC[C@@H](O)[C@H]1CC[C@H]([C@H]2CC[C@H]([C@H](O)CCCCCCCCCC[C@@H](O)CC3=C[C@H](C)OC3=O)O2)O1 | 7.80 |
